Measurements: paper PMC9329436, “Optimization of the 4-anilinoquin(az)oline scaffold as epidermal growth factor receptor (EGFR) inhibitors for chordoma utilizing a toxicology profiling assay platform” (Scientific Reports, 2022)

Legend:
Assay in all cases: 33PanQinase activity assay
Format in all cases: biochemical
MAP4K5 = MAP4K5 (Homo sapiens, UniProt Q9Y4K4); conditions: for Residual activity: singlicate
Text: (§1) Table S4. Profiling of two compounds at two concentrations against 320 wild-type protein kinases; singlicate measurement; Residual activities (% of control).

ERBB2 = ERBB2 (Homo sapiens, UniProt P04626); conditions: for Residual activity: singlicate
Text: as §1

RIPK2 = RIPK2 (Homo sapiens, UniProt O43353); conditions: for Residual activity, RIPK2: kinase RIPK2, singlicate
Text: as §1

DDR2 = molecular target: T1, DDR2 (Homo sapiens, UniProt Q16832); conditions: for Residual activity: singlicate
T1 sequence (Q16832 22-855): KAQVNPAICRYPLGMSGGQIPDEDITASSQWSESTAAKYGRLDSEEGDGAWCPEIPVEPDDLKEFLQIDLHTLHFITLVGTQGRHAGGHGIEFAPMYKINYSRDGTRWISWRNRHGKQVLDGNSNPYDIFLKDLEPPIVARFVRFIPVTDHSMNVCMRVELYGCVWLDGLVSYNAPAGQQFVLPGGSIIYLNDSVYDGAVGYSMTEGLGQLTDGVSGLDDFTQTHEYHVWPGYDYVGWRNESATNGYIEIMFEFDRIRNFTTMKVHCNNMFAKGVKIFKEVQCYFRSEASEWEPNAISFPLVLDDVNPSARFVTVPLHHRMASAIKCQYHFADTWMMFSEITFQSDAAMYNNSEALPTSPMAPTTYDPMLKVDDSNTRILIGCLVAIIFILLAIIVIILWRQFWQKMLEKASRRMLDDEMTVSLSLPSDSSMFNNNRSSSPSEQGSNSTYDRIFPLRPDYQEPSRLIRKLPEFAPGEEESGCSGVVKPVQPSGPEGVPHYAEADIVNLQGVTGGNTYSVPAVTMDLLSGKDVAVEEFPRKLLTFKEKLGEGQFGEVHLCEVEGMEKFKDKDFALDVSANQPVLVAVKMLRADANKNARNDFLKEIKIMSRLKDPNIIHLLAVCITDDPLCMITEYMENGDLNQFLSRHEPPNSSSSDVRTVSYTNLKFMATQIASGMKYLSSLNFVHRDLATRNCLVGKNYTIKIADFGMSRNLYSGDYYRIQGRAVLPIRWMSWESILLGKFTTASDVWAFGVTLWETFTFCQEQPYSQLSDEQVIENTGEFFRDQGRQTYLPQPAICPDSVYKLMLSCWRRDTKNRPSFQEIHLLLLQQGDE
Text: as §1

SLK = SLK (Homo sapiens, UniProt Q9H2G2); conditions: for SLK inhibition: 10 μM; for Residual activity, SLK: kinase SLK, singlicate
Text: as §1

PIM1 = PIM1 (Homo sapiens, UniProt P11309); conditions: for Residual activity: singlicate
Text: as §1

PRKG2 = molecular target: T2, PRKG2 (Homo sapiens, UniProt Q13237); conditions: for Residual activity, PRKG2: kinase PRKG2, singlicate
T2 sequence (Q13237 1-762): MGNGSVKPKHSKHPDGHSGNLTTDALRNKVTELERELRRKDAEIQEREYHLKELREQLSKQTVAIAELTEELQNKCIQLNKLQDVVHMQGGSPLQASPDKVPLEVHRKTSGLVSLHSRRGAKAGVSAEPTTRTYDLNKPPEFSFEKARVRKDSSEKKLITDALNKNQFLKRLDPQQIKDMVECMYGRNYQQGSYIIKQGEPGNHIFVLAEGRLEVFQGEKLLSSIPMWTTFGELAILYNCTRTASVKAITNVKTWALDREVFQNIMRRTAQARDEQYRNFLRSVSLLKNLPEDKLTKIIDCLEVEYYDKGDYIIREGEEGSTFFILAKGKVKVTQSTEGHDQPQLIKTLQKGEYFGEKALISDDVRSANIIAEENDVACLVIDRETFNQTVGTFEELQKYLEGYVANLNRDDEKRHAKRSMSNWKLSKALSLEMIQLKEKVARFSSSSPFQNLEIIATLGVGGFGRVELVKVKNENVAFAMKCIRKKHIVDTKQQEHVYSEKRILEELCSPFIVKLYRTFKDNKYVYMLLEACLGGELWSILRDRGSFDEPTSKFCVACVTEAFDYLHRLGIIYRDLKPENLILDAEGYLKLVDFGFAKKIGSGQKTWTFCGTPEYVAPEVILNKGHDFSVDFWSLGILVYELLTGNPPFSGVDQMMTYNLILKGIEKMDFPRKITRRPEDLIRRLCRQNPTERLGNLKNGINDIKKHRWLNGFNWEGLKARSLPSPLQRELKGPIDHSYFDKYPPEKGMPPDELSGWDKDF
Text: as §1

LCK = LCK (Homo sapiens, UniProt P06239); conditions: for Residual activity: LCK, singlicate
Text: as §1

Aurora-B = Aurora-B (Homo sapiens, UniProt Q96GD4); conditions: for Residual activity: Aurora-B, singlicate
Text: as §1

MINK1 = MINK1 (Homo sapiens, UniProt Q8N4C8); conditions: for Residual activity: singlicate
Text: as §1

MAP4K4 = MAP4K4 (Homo sapiens, UniProt O95819); conditions: for MAP4K4 inhibition: 10 μM; for Residual activity: singlicate
Text: as §1

NIK = NIK (Homo sapiens, UniProt Q99558); conditions: for Residual activity: NIK, singlicate
Text: as §1

MKNK2 = MKNK2 (Homo sapiens, UniProt Q9HBH9); conditions: for Residual activity: singlicate
Text: as §1

EGFR = EGFR (Homo sapiens, UniProt P00533); conditions: for Residual activity: EGF-R, singlicate
Text: as §1

ERBB2, sequence (P04626 23-1255): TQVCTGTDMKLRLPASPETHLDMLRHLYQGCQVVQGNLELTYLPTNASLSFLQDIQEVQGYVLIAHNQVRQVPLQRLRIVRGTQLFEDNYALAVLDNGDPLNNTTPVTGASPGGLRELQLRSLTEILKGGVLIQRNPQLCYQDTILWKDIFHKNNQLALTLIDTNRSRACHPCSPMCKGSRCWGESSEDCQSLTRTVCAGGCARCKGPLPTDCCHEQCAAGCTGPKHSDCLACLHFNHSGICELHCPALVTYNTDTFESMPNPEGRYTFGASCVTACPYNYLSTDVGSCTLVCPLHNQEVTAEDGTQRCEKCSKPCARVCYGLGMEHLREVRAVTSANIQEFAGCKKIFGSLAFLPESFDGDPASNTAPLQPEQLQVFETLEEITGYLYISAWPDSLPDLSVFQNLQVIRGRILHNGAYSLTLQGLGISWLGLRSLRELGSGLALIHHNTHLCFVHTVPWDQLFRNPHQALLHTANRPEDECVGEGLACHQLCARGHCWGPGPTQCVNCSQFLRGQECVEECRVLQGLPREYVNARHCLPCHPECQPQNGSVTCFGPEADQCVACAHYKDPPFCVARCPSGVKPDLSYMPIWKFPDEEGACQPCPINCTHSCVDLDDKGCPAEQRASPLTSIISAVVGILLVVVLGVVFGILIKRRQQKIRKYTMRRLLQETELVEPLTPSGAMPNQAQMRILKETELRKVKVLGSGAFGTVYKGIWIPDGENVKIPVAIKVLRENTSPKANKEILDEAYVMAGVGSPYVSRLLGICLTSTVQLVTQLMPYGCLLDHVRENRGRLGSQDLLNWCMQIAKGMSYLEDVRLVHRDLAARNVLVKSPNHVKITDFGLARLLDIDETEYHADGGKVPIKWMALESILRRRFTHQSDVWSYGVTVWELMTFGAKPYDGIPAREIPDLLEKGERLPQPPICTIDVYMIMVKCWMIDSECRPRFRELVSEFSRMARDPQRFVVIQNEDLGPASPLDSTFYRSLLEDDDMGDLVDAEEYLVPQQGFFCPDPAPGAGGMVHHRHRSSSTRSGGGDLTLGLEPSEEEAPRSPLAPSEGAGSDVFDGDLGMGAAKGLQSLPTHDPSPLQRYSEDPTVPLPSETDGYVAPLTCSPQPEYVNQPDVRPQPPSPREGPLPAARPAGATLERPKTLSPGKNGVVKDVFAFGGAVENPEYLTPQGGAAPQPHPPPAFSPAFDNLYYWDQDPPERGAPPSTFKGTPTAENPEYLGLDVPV
MAP4K5, sequence (Q9Y4K4 whole entry): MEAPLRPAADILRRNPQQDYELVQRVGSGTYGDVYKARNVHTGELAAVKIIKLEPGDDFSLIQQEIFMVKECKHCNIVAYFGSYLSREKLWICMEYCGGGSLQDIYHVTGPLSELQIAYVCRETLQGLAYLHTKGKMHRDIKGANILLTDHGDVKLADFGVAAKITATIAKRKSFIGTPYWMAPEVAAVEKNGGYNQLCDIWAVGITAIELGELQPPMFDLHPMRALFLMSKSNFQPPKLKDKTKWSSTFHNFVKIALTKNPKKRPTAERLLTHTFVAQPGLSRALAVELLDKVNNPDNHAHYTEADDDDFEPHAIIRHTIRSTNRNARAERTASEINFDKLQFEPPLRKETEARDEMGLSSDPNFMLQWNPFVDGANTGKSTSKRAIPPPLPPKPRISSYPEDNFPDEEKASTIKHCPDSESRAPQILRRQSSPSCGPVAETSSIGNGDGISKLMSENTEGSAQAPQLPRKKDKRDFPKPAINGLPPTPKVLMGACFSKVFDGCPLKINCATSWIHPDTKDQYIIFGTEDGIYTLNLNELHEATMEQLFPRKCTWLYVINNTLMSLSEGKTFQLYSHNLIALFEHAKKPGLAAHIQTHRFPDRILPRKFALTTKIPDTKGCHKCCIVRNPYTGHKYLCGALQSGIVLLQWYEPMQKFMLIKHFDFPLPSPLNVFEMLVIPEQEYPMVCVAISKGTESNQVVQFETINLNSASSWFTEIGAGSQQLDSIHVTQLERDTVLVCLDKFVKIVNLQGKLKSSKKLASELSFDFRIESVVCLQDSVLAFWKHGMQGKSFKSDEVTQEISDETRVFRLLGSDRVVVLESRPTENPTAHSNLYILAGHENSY
MAP4K4, sequence (O95819 whole entry): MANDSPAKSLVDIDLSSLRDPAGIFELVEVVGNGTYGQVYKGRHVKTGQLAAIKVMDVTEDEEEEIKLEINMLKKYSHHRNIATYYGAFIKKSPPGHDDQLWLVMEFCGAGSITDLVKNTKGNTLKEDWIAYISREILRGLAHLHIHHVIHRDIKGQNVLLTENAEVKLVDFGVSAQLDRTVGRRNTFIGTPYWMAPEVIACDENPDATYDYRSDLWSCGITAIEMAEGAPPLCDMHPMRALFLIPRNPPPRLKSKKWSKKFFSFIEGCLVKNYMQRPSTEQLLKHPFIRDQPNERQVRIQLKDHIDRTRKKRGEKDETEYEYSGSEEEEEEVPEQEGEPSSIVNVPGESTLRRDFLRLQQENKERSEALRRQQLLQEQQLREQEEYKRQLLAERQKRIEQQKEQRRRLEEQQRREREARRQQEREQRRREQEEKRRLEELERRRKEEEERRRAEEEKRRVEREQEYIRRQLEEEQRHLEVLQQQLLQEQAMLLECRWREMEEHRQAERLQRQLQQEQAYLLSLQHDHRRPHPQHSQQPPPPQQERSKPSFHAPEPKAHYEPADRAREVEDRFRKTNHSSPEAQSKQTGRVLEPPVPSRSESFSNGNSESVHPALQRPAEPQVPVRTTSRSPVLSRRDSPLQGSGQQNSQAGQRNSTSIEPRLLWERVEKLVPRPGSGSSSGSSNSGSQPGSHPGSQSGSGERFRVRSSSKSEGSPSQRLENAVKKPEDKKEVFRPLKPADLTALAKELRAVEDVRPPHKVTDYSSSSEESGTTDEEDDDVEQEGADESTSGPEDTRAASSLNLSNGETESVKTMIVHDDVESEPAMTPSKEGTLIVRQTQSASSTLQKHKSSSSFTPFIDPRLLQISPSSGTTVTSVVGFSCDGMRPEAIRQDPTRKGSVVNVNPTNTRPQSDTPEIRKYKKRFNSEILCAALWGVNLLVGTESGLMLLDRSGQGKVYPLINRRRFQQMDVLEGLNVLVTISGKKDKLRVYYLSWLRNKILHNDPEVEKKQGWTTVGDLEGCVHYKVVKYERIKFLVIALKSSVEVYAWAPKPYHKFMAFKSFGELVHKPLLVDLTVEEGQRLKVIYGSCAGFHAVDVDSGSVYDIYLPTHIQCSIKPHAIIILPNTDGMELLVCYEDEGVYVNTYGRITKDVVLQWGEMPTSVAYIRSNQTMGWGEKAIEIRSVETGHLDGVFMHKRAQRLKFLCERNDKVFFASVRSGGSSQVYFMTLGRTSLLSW
NIK, sequence (Q99558 whole entry): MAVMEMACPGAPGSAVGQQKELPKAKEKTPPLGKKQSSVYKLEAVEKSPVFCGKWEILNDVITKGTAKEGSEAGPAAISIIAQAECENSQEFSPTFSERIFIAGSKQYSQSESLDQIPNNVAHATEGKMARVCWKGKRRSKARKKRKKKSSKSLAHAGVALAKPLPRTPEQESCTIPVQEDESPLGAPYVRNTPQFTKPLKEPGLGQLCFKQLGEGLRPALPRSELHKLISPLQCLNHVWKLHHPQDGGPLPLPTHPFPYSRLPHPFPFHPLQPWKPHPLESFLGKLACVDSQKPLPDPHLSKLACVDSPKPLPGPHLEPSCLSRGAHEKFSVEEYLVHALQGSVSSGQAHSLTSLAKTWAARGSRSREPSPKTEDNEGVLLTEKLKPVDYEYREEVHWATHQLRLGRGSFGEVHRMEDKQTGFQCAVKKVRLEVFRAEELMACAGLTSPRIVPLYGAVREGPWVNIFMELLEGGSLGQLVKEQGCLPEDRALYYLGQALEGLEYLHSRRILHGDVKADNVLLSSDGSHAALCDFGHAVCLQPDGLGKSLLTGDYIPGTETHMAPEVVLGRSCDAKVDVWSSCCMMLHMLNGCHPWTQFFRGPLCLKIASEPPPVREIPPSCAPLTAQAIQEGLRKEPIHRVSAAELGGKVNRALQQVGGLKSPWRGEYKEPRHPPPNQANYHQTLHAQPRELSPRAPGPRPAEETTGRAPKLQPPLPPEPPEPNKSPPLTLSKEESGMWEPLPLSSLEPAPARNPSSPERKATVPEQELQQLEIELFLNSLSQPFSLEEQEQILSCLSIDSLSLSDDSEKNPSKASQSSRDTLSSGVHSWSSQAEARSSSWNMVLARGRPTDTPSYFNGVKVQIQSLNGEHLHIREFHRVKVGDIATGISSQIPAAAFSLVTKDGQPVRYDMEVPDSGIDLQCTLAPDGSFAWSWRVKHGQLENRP
MKNK2, sequence (Q9HBH9 whole entry): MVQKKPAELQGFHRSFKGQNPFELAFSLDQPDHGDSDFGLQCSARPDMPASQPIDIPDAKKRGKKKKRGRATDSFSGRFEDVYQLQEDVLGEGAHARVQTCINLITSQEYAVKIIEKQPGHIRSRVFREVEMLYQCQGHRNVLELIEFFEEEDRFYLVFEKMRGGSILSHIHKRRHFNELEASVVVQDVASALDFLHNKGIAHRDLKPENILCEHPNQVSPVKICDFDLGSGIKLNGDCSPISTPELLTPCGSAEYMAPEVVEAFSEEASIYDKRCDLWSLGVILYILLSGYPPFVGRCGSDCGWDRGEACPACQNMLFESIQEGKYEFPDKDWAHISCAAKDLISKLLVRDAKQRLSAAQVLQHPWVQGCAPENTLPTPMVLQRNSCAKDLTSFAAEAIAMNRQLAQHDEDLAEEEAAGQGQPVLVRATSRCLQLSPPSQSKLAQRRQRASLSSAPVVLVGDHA
PIM1, sequence (P11309 whole entry): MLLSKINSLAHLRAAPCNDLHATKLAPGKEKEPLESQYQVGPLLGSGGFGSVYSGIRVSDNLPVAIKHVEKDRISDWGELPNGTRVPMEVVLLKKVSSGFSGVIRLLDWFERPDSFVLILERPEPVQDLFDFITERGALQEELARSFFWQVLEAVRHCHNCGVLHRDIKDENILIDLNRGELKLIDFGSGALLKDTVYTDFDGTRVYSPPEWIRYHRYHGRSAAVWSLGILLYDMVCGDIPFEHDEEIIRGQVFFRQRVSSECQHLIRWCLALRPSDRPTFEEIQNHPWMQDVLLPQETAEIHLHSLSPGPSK

SMILES: C#Cc1cc(Nc2ncnc3cc(I)ccc23)ccc1Cl [Compound 41]
- Residual activity (MAP4K5; MAP4K5, 1.0E-06 M): 70 % of control
- Residual activity (MAP4K5; MAP4K5, 1.0E-07 M): 101 % of control
- Residual activity (ERBB2; ERBB2, 1.0E-06 M): 78 % of control
- Residual activity (ERBB2; ERBB2, 1.0E-07 M): 96 % of control
- Residual activity, RIPK2 (RIPK2; assay conc. 1.0E-06 M): 96 % of control
- Residual activity, RIPK2 (RIPK2; assay conc. 1.0E-07 M): 107 % of control
- Residual activity (DDR2; DDR2, 1.0E-06 M): 81 % of control
- Residual activity (DDR2; DDR2, 1.0E-07 M): 91 % of control
- SLK inhibition (SLK): > 50%
- Residual activity, SLK (SLK; assay conc. 1.0E-06 M): 32 % of control
- Residual activity, SLK (SLK; assay conc. 1.0E-07 M): 67 % of control
- Residual activity (PIM1; PIM1, 1.0E-06 M): 71 % of control
- Residual activity (PIM1; PIM1, 1.0E-07 M): 85 % of control
- PRKG2 inhibition (PRKG2; 10 μM): > 50%
- Residual activity, PRKG2 (PRKG2; assay conc. 1.0E-06 M): 20 % of control
- Residual activity, PRKG2 (PRKG2; assay conc. 1.0E-07 M): 100 % of control
- Residual activity (LCK; 1.0E-06 M): 59 % of control
- Residual activity (LCK; 1.0E-07 M): 78 % of control
- Aurora-B inhibition (Aurora-B; 10 μM): > 50%
- Residual activity (Aurora-B; 1.0E-06 M): 30 % of control
- Residual activity (Aurora-B; 1.0E-07 M): 75 % of control
- Residual activity (MINK1; MINK1, 1.0E-06 M): 54 % of control
- Residual activity (MINK1; MINK1, 1.0E-07 M): 64 % of control
- MAP4K4 inhibition (MAP4K4): > 50%
- Residual activity (MAP4K4; MAP4K4, 1.0E-06 M): 41 % of control
- Residual activity (MAP4K4; MAP4K4, 1.0E-07 M): 73 % of control
- Residual activity (NIK; 1.0E-06 M): 120 % of control
- Residual activity (NIK; 1.0E-07 M): 126 % of control
- Residual activity (MKNK2; MKNK2, 1.0E-06 M): 74 % of control
- Residual activity (MKNK2; MKNK2, 1.0E-07 M): 92 % of control
- EGFR inhibition (EGFR; 1 μM): > 50%
- EGFR inhibition (EGFR; 10 μM): > 50%
- Residual activity (EGFR; 1.0E-06 M): 8 % of control
- Residual activity (EGFR; 1.0E-07 M): 28 % of control

SMILES: C#Cc1cc(Nc2ncnc3cc(OC)c(OC)cc23)ccc1Cl [Compound 45]
- MAP4K5 inhibition (MAP4K5; 10 μM): > 50%
- Residual activity (MAP4K5; MAP4K5, 1.0E-06 M): 22 % of control
- Residual activity (MAP4K5; MAP4K5, 1.0E-07 M): 108 % of control
- ERBB2 inhibition (ERBB2; 1 μM): moderate inhibition
- Residual activity (ERBB2; ERBB2, 1.0E-06 M): 11 % of control
- Residual activity (ERBB2; ERBB2, 1.0E-07 M): 44 % of control
- RIPK2 inhibition (RIPK2; 10 μM): > 50%
- Residual activity, RIPK2 (RIPK2; assay conc. 1.0E-06 M): 13 % of control
- Residual activity, RIPK2 (RIPK2; assay conc. 1.0E-07 M): 59 % of control
- DDR2 inhibition (DDR2; 10 μM): > 50%
- Residual activity (DDR2; DDR2, 1.0E-06 M): 35 % of control
- Residual activity (DDR2; DDR2, 1.0E-07 M): 87 % of control
- SLK inhibition (SLK): > 50%
- Residual activity, SLK (SLK; assay conc. 1.0E-06 M): 18 % of control
- Residual activity, SLK (SLK; assay conc. 1.0E-07 M): 76 % of control
- PIM1 inhibition (PIM1; 10 μM): > 50%
- Residual activity (PIM1; PIM1, 1.0E-06 M): 38 % of control
- Residual activity (PIM1; PIM1, 1.0E-07 M): 73 % of control
- Residual activity, PRKG2 (PRKG2; assay conc. 1.0E-06 M): 80 % of control
- Residual activity, PRKG2 (PRKG2; assay conc. 1.0E-07 M): 118 % of control
- LCK inhibition (LCK; 10 μM): > 50%
- Residual activity (LCK; 1.0E-06 M): 36 % of control
- Residual activity (LCK; 1.0E-07 M): 94 % of control
- Residual activity (Aurora-B; 1.0E-06 M): 43 % of control
- Residual activity (Aurora-B; 1.0E-07 M): 91 % of control
- MINK1 inhibition (MINK1; 10 μM): > 50%
- Residual activity (MINK1; MINK1, 1.0E-06 M): 29 % of control
- Residual activity (MINK1; MINK1, 1.0E-07 M): 86 % of control
- MAP4K4 inhibition (MAP4K4): > 50%
- Residual activity (MAP4K4; MAP4K4, 1.0E-06 M): 48 % of control
- Residual activity (MAP4K4; MAP4K4, 1.0E-07 M): 87 % of control
- NIK inhibition (NIK; 10 μM): > 50%
- Residual activity (NIK; 1.0E-06 M): 122 % of control
- Residual activity (NIK; 1.0E-07 M): 127 % of control
- MKNK2 inhibition (MKNK2; 10 μM): > 50%
- Residual activity (MKNK2; MKNK2, 1.0E-06 M): 46 % of control
- Residual activity (MKNK2; MKNK2, 1.0E-07 M): 78 % of control
- EGFR inhibition (EGFR; 1 μM): > 50%
- EGFR inhibition (EGFR; 10 μM): > 50%
- Residual activity (EGFR; 1.0E-06 M): 0 % of control
- Residual activity (EGFR; 1.0E-07 M): 2 % of control
